The text below walks through data of patent publication US10022341B2, “Methods of preventing neurodegeneration of association cortex in a mammal” (YALE UNIVERSITY, priority 2014, dated 2018).

Entries after “also recorded” stand apart in the source; their conditions may differ.

The subject of data set [1] is p-S214 tau in aged monkey dlPFC. In words: Immunoblot of p-S214 tau in dlPFC after chronic daily treatment. The format is in vivo. Conditions: 0.001-0.1 mg/kg daily for 6 mos, n=1, pilot study. As to the method:
FIG. 18 is a set of immunoblots and a graph illustrating the finding that chronic daily treatment with the α2A-AR agonist, guanfacine, reduces abnormal phosphorylation of tau in the aged monkey dlPFC.
Heat-stable tau was prepared as detailed in Bussière et al., 2003, J Comp Neurol. 463:281. Small blocks of dlPFC were surgically removed and flash-frozen before perfusion of subjects. A piece was placed into ice-cold homogenization buffer (10 mM Tris pH 7.4, 140 mM NaCl, 2 mM EGTA, plus protease and phosphatase inhibitors; 400 μL per 100 mg tissue) and homogenized by sonication. A small fraction was reserved for protein quantification for gel loading. NaCl was added to 250 mM, followed by addition of β-mercaptoethanol (14.3 M, Sigma) to 5% total volume. Samples were vortexed and heated to 100° C. for 15 min, vortexed, then cooled on ice for 30 min. Lysates were cleared by centrifugation at 16,100×g for 10 min at 4° C., and the supernatant used for immunoblotting. Band intensities were normalized by total heat-stable protein, quantified by measurement of major band intensities on a Coomassie stained gel (FIG. 5C).
All samples were run on Invitrogen Novex 4-12% Tris-glycine gels using the Biorad Western blotting system. […] Bands were quantified using Odyssey Software, and statistics performed by Student's T-test, unless stated otherwise.
Background: In western blotting, separated proteins are transferred to a membrane and probed.

The conditions of data set [2]: humans; cited from earlier work.
In data set [3] the test system is phospho-COXIV-1 (p-S58) in aged monkey dlPFC. In words: Immunoblot of phospho-COXIV-1 (p-S58) in dlPFC after chronic daily treatment. The format is in vivo. Conditions: 0.001-0.1 mg/kg daily for 6 mos, n=1, pilot study. As to the method: FIG. 19 is a set of immunoblots and a bar graph illustrating that chronic daily treatment with the α2A-AR agonist, guanfacine, reduces abnormal phosphorylation of COXIV in the aged monkey dlPFC.
All samples were run on Invitrogen Novex 4-12% Tris-glycine gels using the Biorad Western blotting system. Lanes were transferred onto […] Nitrocellulose (Biorad) and incubated overnight in primary antibodies: anti PDE4A (Abcam, ab14607; 1:1000), anti-GAPDH (Advanced Immunochemical, mAb 6C5; 1:5000), anti-PDE4B (Pearson et al., 1985, Proc. Natl. Acad. Sci. USA 82:4531), anti-β-tubulin (T2200, Sigma; 1:5000), anti-PSD95 (EMD Millipore, mAb N68; 1:5000), anti-pSer214 (EMD Millipore, AB6972; 1:1000) for all experiments, except the primary culture experiment, where Abcam 4846 was used due to discontinuation of the previous antibody, anti-pThr231 (Pierce, OPA1-031556; 1:1000), anti-tau (clone 5E2, EMD Millipore, 05-348; 1:500-1:1000). Primary antibodies were labeled using the appropriate Licor IRDye 680 or 800 secondary antibody, and visualized using a Licor Odyssey Infra Red Scanner. Bands were quantified using Odyssey Software, and statistics performed by Student's T-test, unless stated otherwise.

For data set [4], the system named is aged monkeys (18-28 yrs). In words: Working memory performance after chronic daily treatment. Format: in vivo, monkey.
Data set [5] concerns pS214-tau in mouse primary cortical neurons. The data set can be described thus: pSer214 phosphorylation assay in cultured neurons (immunoblot). The format is cell-based. As to the method: FIG. 15 is a series of immunoblots illustrating the effect of PDE4 inhibition on phosphorylation of tau at Serine 214. Mouse primary cortical neurons between 7-11 days in vitro were preincubated with 10 μM rolipram or vehicle for 10 min, before being subjected to treatment with varying nM concentrations of forskolin (as indicated). Following this treatment, cells were lysed in 1% SDS with protease and phosphatase inhibitors (Complete Mini, Roche and PhosStop, Roche), and heated to 70° C. to prevent further phosphatase activity. Samples were quantified by BCA assay, and analyzed by imunoblotting. Blots were labeled for pSer214-tau (Abcam, 4846), total tau (EMD Millipore, clone 5E2) and GAPDH (Advanced Immunochemical, mAb 6C5). Bands were quantified using Image J, and total tau signals were normalized by GAPDH. p-Tau signals were then normalized to total tau signals.
Primary cortical neurons were prepared from P1 C57Bl/6 mice. One day prior to neuron production, plates were coated overnight with Poly-D-Lysine solution (Sigma). […]
Assays were performed on primary cortical neurons between 7-11 days in vitro. […] Samples were quantified by BCA assay, and analyzed by immunoblotting. In this instance, band intensity was quantified using ImageJ, and significance assessed by 2 way ANOVA using Graph Pad Prism software.

With `NC(N)=NC(=O)Cc1c(Cl)cccc1Cl` [guanfacine, N-(diaminomethylidene)-2-(2,6-dichlorophenyl)acetamide], in data set [1], the “p-S214 tau expression in dlPFC compared to chronic vehicle” value was “reduces the expression of p-tau; also recorded: dose-related reduction in phosphorylated tau at the pS214 site; also recorded: dose-related reduction in p-S214 expression”. In addition, the “safety of long-term treatment” value in data set [2] is on record as “proven safe for long-term treatment”. Further, the “phospho-COXIV-1 (p-S58) expression in dlPFC compared to chronic vehicle” value in data set [3] is “reduces the expression of p-tau and phospho-COXIV-1; also recorded: decreasing phospho-COXIV-1; also recorded: decreased phospho-COXIV-1 expression”. Also, the “working memory / cognitive performance compared to baseline” value is “enhances cognitive performance; also recorded: significantly improved working memory performance” in data set [4] (0.001 or 0.01 mg/kg daily for 6 months, n=4 or 5); “produced improvement in some monkeys but not in others; also recorded: highly variable and thus not significant” in data set [4] (highest dose 0.1 mg/kg daily for 6 months, 0.1 mg/kg).

On to `COc1ccc(C2CNC(=O)C2)cc1OC1CCCC1` (stereo not shown) [rolipram], for which, in data set [5] (10 μM with forskolin, F(1,60)=8.882, p=0.0042), the “forskolin-induced increase in pS214-tau” value was “significantly increased”. Moreover, the pS214-tau level entry in data set [5] (PDE4 inhibition, FIG. 3G) is listed as “increased pS214-tau”.
